# Several values for one entry are separate records, joined by “and”; a condition that tells them apart may be missing. Identical values can stand only once.
# Assays:
# P2Y12 receptor = molecular target: P2Y12 receptor; design: method as in not given; conditions: Chinese hamster ovarian cell membranes; reported values from literature; ref not given; cited from earlier work
# P2Y12R [1] = molecular target: P2Y12R (Homo sapiens, UniProt Q9H244); assay: cell-based; conditions: IC50, [33P]2-MeSADP competitor; triplicates, mean; footnote b values: three independent experiments, mean ± SD
# Protocol: The cell cultures were maintained in an incubator at 37 °C under a humidified and 5% CO2-conditioned atmosphere. Cells were passaged at 80% confluency. For binding assays, cells were harvested with Trypsin-EDTA (5 mL, Gibco) and resuspended in medium. The suspension was centrifuged at 1000g for 5 min and the supernatant was discarded. The cells were adjusted to assay cell concentration (2 × 10^6 cells/mL) by the addition of D-PBS and stored at 37 °C up to 1 h prior to the binding assay.
# The mixture was transferred to a 96-well filter plate (1.0 μm glass fiber filter, MultiScreenHTS FB Filter Plate, Merck Millipore, Billercia, MA) and filtered with a vacuum manifold (MultiScreenHTS Vacuum Manifold, Merck Millipore, Billercia, MA). The filters were washed by the addition of cold PBS buffer (4 × 200 μL) and dried at rt for 1 h. Afterward, a punch-tip plate was mounted and the filters were separated into scintillation vials (10 mL) containing scintillation cocktail (4 mL, Rotiszint eco plus LSC-Universalcocktail). […] Bound activity was plotted as a function of ligand concentration in GraphPad Prism 8.0 (GraphPad Software, version 8.4.3., San Diego, CA).
# [2] = Log D 7.4 shake flask method, n-octanol/PBS; conditions: pH 7.4
# Protocol: The distribution of [^18F]12 between n-octanol and PBS buffer was determined by the shake-flask method at rt. […] After 30 min, three samples (100 μL) were taken from each phase. […] Radioactivity for all samples was quantified by a γ-counter (counting time 1 min, counting window 450–570 keV, HIDEX AMG γ Counter version 1.6.0.0, Turku, Finland).
# [3] = Ex vivo metabolite analysis by radio-HPLC (plasma, liver, brain); conditions: 60 min p.i.
# Protocol: 60 min after tracer administration, mice were transferred to the anesthesia box for isoflurane overdose and euthanized by cervical dislocation. Mouse organs and blood samples were collected, weighed and counted in a γ-counter. Blood samples were obtained by cardiac puncture and transferred to EDTA tubes (Microvette 500 K3E, Sarstedt, Nümbrecht, Germany) to prevent platelet aggregation. Blood samples were centrifuged at 3000g for 5 min to isolate blood plasma. An equal volume of TFA solution (10%) was added to plasma to precipitate remaining plasma proteins. The precipitate was separated by centrifugation at 20,817g for 5 min. […] Brain and liver samples were homogenized (Ika disperser T8.10) in a 1:1 mixture of MeCN and H2O and centrifuged at 3000g for 5 min.
# P2Y12R [4] = molecular target: T1, P2Y12R (Mus musculus, UniProt Q9CPV9); assay: Correlation of PET signal with immunohistochemistry; type: in vivo; design: from tissue; host or cells: brain of living WT, PLX-5622-treated and Trem2-/- mice; conditions: cortical SUV 25–60 min p.i.
# Protocol: Ex vivo immunohistochemical evaluation of Iba1 and P2Y12R expression was performed for a subset of mice (4 WT, 4 PLX, 8 Trem2^–/–) to correlate P2Y12 PET signal with target expression. […] High levels of Iba1 and P2Y12R were also detectable in Trem2^–/– mice, but reflecting the results of the PET studies, P2Y12R levels were not elevated compared to WT mice. Cortical SUV levels, derived from PET imaging in the most significant time frame (25–60 min p.i.) (Figure S12D), were correlated with Iba1 or P2Y12R expression density. A strong association between Iba1 signal and tracer uptake (R = 0.6589, p = 0.0055, Figure B) and between the P2Y12R signal and tracer uptake (R = 0.754, p = 0.0007, Figure C) was observed. The P2Y12 signal was well associated with Iba1 (R = 0.6, p = 0.014, Figure D) indicating predominant microglial receptor visualization.
# Paraformaldehyde-fixed 50 μm thick sagittal brain sections were incubated overnight at 4 °C in PBS with 5% normal goat serum and 0.5% Triton X-100 containing guinea pig monoclonal anti-Iba1 primary antibody (1:500, Synaptic Systems GmbH, Göttingen, Germany, 234308) and rat monoclonal anti-P2Y12R primary antibody (1:200, P2YM 17A12, this work). […] The images were processed using the LAS X Software (version 3.9.1.28433), and analysis was conducted with FiJi/ImageJ (version 1.54f) by quantifying Iba1 and P2Y12R signal over a predefined threshold. […]
# [5] = Ex vivo biodistribution 60 min p.i.; type: in vivo, mouse; conditions: WT mice
# [6] = In vitro stability in human blood/plasma, radio-HPLC; conditions: 37 °C
# P2Y12R [7] = molecular target: T1, P2Y12R; assay: Dynamic in vivo PET imaging in WT, PLX and Trem2-/- mice; conditions: for maximum brain uptake C max: whole brain TAC
# Protocol: Dynamic in vivo PET imaging was carried out in WT mice (n = 8) in order to assess the tracer distribution and brain uptake for [^18F]12 (Figure A). An initial peak of activity and subsequent rapid washout in blood and lungs was observed after tracer injection. The activity then predominantly accumulated in the liver, kidneys, bladder and intestines (Figure B). […] Dynamic in vivo PET imaging was repeated with WT mice (n = 2) under self-block conditions. […] Mouse organs were collected 60 min p.i. after intracardial perfusion to quantify the tracer uptake ex vivo.
# To exclude a potential bias in brain PET interpretation caused by varying blood levels, volume-of-distribution (V T) images were computed using an image-derived cardiac input function.
# The mice were scanned first with CT (70 kVp/650 μA, exposure time 300 ms, Helical 1.0 pitch). […] PET images of each mouse were coregistered with CT images of the corresponding mouse. A standardized global mean volume of interest (VOI) was used to assess tracer enrichment in the brain and to generate time-activity curves. For liver, bladder and kidney, VOIs were manually drawn as spheres. Data are reported as %ID/g or SUV. For each dynamic PET scan, VT was calculated using the method described by Logan et al., employing a cardiac input function obtained from a standardized VOI. The resulting brain V T image was then analyzed using a standardized global mean VOI. No corrections were made for radiometabolites.
# P2Y12R [8] = molecular target: T1, P2Y12R; assay: In vitro autoradiography on mouse brain sections; type: binding; design: from tissue; host or cells: brain of living WT, PLX-5622-treated and Trem2-/- mice
# Protocol: In vitro ARG experiments on brain sections from all animal models were performed under baseline and blocking conditions. […] However, as already concluded from our PET data (Figure ), the high signal in PLX sections may reflect a substantial amount of nonspecific (NSB) or off-target binding.
# WT, PLX and Trem2^–/– mouse brain sections were thawed to rt for 5 min and then preincubated with PBS buffer (pH = 7.4) for 10 min. Sections were then incubated with a maximum of 0.5 MBq/mL [^18F]12 tracer formulation at rt for 45 min in PBS buffer. […] Subsequently, sections were washed with 30% ethanol for 1 min, 70% ethanol for 2 min and PBS for 1 min, before leaving them to dry at rt for 60 min. Afterward, brain sections were exposed to a phosphor imaging plate at rt for 24 h and then scanned with a CR-Reader (CR35 BIO, DÜRR MEDICAL, Bietigheim-Bissingen, Germany). The images were analyzed using Aida Image Analyzer software (v.4.50.010, Elysia-raytest GmbH, Straubenhardt, Germany). Quantification was performed by placing a region of interest (ROI) in the CTX and the hypothalamus (HYP) as pseudo reference region. Results are either expressed as normalized intensity relative to maximal intensity after background subtraction or as CTX to HYP ratio.
# [9] = In vitro stability in PBS, radio-HPLC; conditions: PBS formulation, 37 °C
# T1 sequence (Q9CPV9 whole entry): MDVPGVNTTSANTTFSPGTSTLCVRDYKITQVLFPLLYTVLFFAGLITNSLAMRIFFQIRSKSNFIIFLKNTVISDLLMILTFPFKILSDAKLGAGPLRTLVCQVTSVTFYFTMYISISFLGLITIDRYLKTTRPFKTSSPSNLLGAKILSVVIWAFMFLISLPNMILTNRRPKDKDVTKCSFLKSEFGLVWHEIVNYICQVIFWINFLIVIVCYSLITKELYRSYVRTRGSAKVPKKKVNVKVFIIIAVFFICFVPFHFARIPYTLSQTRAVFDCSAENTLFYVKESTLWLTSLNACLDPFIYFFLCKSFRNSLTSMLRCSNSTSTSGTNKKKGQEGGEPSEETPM
# Sequence of P2Y12R (Homo sapiens, UniProt Q9H244) (Q9H244 whole entry): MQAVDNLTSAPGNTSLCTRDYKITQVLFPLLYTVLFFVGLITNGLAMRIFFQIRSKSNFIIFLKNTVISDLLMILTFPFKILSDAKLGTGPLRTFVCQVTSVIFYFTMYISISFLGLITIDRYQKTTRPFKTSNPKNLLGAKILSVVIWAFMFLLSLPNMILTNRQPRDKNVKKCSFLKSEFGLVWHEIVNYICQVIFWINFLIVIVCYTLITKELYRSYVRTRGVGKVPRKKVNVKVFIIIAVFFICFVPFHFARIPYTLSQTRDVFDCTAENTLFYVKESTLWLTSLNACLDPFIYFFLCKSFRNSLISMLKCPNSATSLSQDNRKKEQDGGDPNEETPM
structure (smiles),measurement,setting,value
"CCOC(=O)c1cc(C#N)c(N2CCC(C(=O)NS(=O)(=O)Cc3ccccc3)CC2)nc1C [Compound 5, Ethyl 6-(4-((Benzylsulfonyl)-carbamoyl)-piperidin-1-yl)-5-cyano-2-methylnicotinate, reference compound]",IC50,P2Y12 receptor,11 nM
"CCOC(=O)c1cc(C#N)c(N2CCN(C(=O)NCc3ccc(F)cc3)CC2)nc1C [Compound 7, Ethyl 5-Cyano-6-(4-((4-fluorobenzyl)-carbamoyl)-piperazin-1-yl)-2-methylnicotinate]",IC50,P2Y12R [1],1840 nM
"N#Cc1cc2c(nc1N1CCN(C(=O)NCc3ccc(F)cc3)CC1)COC2=O [Compound 8, 4-(3-Cyano-5-oxo-5,7-dihydrofuro[3,4-b]-pyridin-2-yl)-N-(4-fluorobenzyl)-piperazine-1-carboxamide]",IC50,P2Y12R [1],1840 nM and 5710 nM
"CCOC(=O)c1ccc(N2CCC(C(=O)NCc3ccc(F)cc3)CC2)nc1C [Compound 9, Ethyl 6-(4-((4-Fluorobenzyl)-carbamoyl)-piperidin-1-yl)-2-methylnicotinate]",IC50,P2Y12R [1],762 nM
"N#Cc1cc2c(nc1N1CCC(C(=O)NCc3ccc(F)cc3)CC1)COC2=O [Compound 14, 1-(3-Cyano-5-oxo-5,7-dihydrofuro[3,4-b]-pyridin-2-yl)-N-(4-fluorobenzyl)-piperidine-4-carboxamide]",IC50,P2Y12R [1],199 nM
"CCOC(=O)c1ccc(N2CCC(C(=O)NCCc3ccc(F)cc3)CC2)nc1C [Compound 15, Ethyl 6-(4-((4-Fluorophenethyl)-carbamoyl)-piperidin-1-yl)-2-methylnicotinate]",IC50,P2Y12R [1],1260 nM
"CCOC(=O)c1cnc(N2CCC(C(=O)NCCc3ccc(F)cc3)CC2)c(Cl)c1 [Compound 16, Ethyl 5-Chloro-6-(4-((4-fluorophenethyl)-carbamoyl)-piperidin-1-yl)-nicotinate]",IC50,P2Y12R [1],661 nM
"CCOC(=O)c1cc(Cl)c(N2CCC(C(=O)NCCc3ccc(F)cc3)CC2)nc1C [Compound 17, Ethyl 5-Chloro-6-(4-((4-fluorophenethyl)-carbamoyl)-piperidin-1-yl)-2-methylnicotinate]",IC50,P2Y12R [1],661 nM and 469 nM
"CCOC(=O)c1cc(C#N)c(N2CCC(C(=O)NCCc3ccc(F)cc3)CC2)nc1C [Compound 18, Ethyl 5-Cyano-6-(4-((4-fluorophenethyl)-carbamoyl)-piperidin-1-yl)-2-methylnicotinate]",IC50,P2Y12R [1],27100 nM
"CCCOc1cc(N2CCC(C(=O)NCCc3ccc(F)cc3)CC2)c(Cl)cc1C(=O)OCC [Compound 19, Ethyl 5-Chloro-4-(4-((4-fluorophenethyl)-carbamoyl)-piperidin-1-yl)-2-propoxybenzoate]",IC50,P2Y12R [1],27100 nM and 3670 nM
"CCOC(=O)c1ccc(N2CC(C(=O)NCc3ccc(F)cc3)C2)nc1C [Compound 20, Ethyl 6-(3-((4-Fluorobenzyl)-carbamoyl)-azetidin-1-yl)-2-methylnicotinate]",IC50,P2Y12R [1],806 nM
"CCOC(=O)c1cnc(N2CC(C(=O)NCc3ccc(F)cc3)C2)c(Cl)c1 [Compound 21, Ethyl 5-Chloro-6-(3-((4-fluorobenzyl)-carbamoyl)-azetidin-1-yl)-nicotinate]",IC50,P2Y12R [1],566 nM
CCOC(=O)c1cc(C#N)c(N2CCC(C(=O)NCc3ccc([18F])cc3)CC2)nc1C [[^18F]12],logD,[2],2.67 ± 0.45
same,fraction of radioactivity in liver,"[3]; WT mice, radio-HPLC",47%
same,fraction of radioactivity in plasma,"[3]; WT mice, radio-HPLC",about 11%
same,intact tracer in plasma,"[3]; WT, PLX and Trem2-/- mice",7 ± 4%
same,intact tracer in brain,[3]; all groups,> 99%
same,correlation R between P2Y12R signal and tracer uptake,P2Y12R [4]; p = 0.0007,0.754
same,correlation R between Iba1 signal and tracer uptake,P2Y12R [4]; p = 0.0055,0.6589
same,Heart uptake,[5]; n = 2,1.30 ± 0.51 %ID/g
same,Kidney uptake,[5]; n = 2,5.5 ± 1.1 %ID/g
same,Liver uptake,[5]; n = 2,19.6 ± 4.8 %ID/g
same,Lung uptake,[5]; n = 2,0.68 ± 0.15 %ID/g
same,Pancreas uptake,[5]; n = 2,0.79 ± 0.14 %ID/g
same,Plasma uptake,[5]; n = 2,1.58 ± 0.78 %ID/g
same,Spleen uptake,[5]; n = 2,0.77 ± 0.19 %ID/g
same,Kidney uptake,"[5]; n = 2, listed as [18F]12",5.51 ± 1.08 %ID/g
same,Liver uptake,"[5]; n = 2, listed as [18F]12",19.62 ± 4.75 %ID/g
same,Blood uptake,[5]; n = 12,1.2 ± 0.6 %ID/g
same,Brain uptake,[5]; n = 12,0.6 ± 0.2 %ID/g
same,Blood uptake,"[5]; n = 12, listed as [18F]12",1.24 ± 0.56 %ID/g
same,Brain uptake,"[5]; n = 12, listed as [18F]12",0.61 ± 0.21 %ID/g
same,time stable with no decomposition,[6],at least 2 h
same,higher brain accumulation in WT compared to PLX mice,"P2Y12R [7]; 25–60 min p.i., p = 0.0029",42%
same,higher brain accumulation in Trem2-/- compared to PLX mice,"P2Y12R [7]; 25–60 min p.i., p = 0.0362",30%
same,maximum brain uptake C max,P2Y12R [7]; Trem2-/- mice,1.7 ± 0.5 SUV
same,brain uptake under self-block conditions,"P2Y12R [7]; WT mice n = 2, 200-fold excess of nonradioactive 12 injected 10 min prior",increased brain uptake
same,C 25min/C 60min,"P2Y12R [7]; WT mice, brain TAC plateau phase",~1.5
same,time of maximum brain uptake,"P2Y12R [7]; WT mice, p.i.",≤ 2 min
same,maximum brain uptake C max,P2Y12R [7]; WT mice,2.5 ± 0.7 SUV
same,brain V T increase in WT compared to PLX mice,"P2Y12R [7]; image-derived cardiac input function, p = 0.002",16%
same,brain V T increase in Trem2-/- compared to PLX mice,"P2Y12R [7]; image-derived cardiac input function, p = 0.0454",10%
same,maximum brain uptake C max,P2Y12R [7]; microglia-depleted (PLX) mice,2.0 ± 0.5 SUV
same,cortical signal under blocking with Ticagrelor,"P2Y12R [8]; PLX sections, 1 μM ticagrelor, p > 0.05",no reduction was observed
same,cortical signal under blocking with Ticagrelor,"P2Y12R [8]; Trem2-/- sections, 1 μM ticagrelor, p < 0.05",significantly reduced
same,cortical signal under blocking with Ticagrelor,"P2Y12R [8]; WT sections, 1 μM ticagrelor (1000-fold excess), p < 0.001",significantly reduced
same,signal under blocking with nonradioactive compound 12,"P2Y12R [8]; WT, PLX and Trem2-/- sections, 1 μM 12 (1000-fold excess)",almost complete blocking of the signal
same,"CTX signal normalized to HYP, PLX sections compared to WT and Trem2-/-","P2Y12R [8]; WT: p < 0.005, Trem2-/-: p < 0.001",significant decreased uptake
same,time stable with no decomposition,[9],at least 2 h

# Reference: publication PMC12362594, “Design, Synthesis and Preclinical Evaluation of a Brain-Permeable PET Tracer for P2Y12 Receptor Imaging in the Brain” (Journal of Medicinal Chemistry, 2025)
